How the values were obtained:
Helicoverpa armigera [1] = test: Whole plant greenhouse assay, 3-way mixture, Helicoverpa armigera; details: tomato plants, 3rd instar larva, 72 hours; flubendiamide 30 GAH, profenofos 480 GAH, Ascophyllum Nodosum 120 GAH, solo or mixtures (1:16, 4:1, 1:16:4)
Method: (§1) The action expected for a given combination of two or three active components can be calculated as follows: […]
(§2) The experiments were carried out to study synergies if any in terms of the use of insecticides (Flubendiamide & Profenofos) and Ascophyllum Nodosum extract mixture at ratio 1:16:4 and 1:16:6 for the control of insect pest and phytotonic effect, if any.
(§3) The whole plant assay was conducted in the greenhouse, in which the desired quantity of the compounds (Flubendiamide, Profenofos and Ascophyllum Nodosum extract) and mixture in the ratio of 1:16:4 and 1:16:6 were prepared. 40-45 days old tomato plants were used for the treatments. Prepared compounds (Table 7) were sprayed in the booth of Generation III research sprayer (to obtain uniformity in spray) with a delivery rate of about 500 L/hectare of spray solution through flat fan nozzle. After the treatment, the plants were allowed to dry and then moved to the laboratory. The treated plants were covered with a mylar sheet for restricting the larval movement. Single starved 3rd instar larva was released on to the plants individually and mylar sheet was covered at the top with a muslin cloth for better air ventilation. The observation on dead, moribund and alive larvae was recorded at 72 hours after the treatment.

tomato crop [2] = test: Field experiment, 3-way mixture, vigor rating of tomato crop; type: in vivo; details: for plant vigor compared with control (visual observation): field, tomato crop; for Vigor rating: visual rating, untreated plots = 100 percent, flubendiamide 30 GAH, profenofos 480 GAH, Ascophyllum Nodosum 120 GAH, solo or mixtures (1:16, 1:4, 4:1, 1:16:4)
From the text: Vigor descriptive scale was totally based on visual observations.

Thrips = test: Whole plant greenhouse assay, 3-way mixture, Thrips; details: brinjal plants, thrips nymph, 72 hours; flubendiamide 30 GAH, profenofos 480 GAH, Ascophyllum Nodosum 120 GAH, solo or mixtures (1:16, 1:4, 4:1, 1:16:4)
Method: as §1, §2
as §3, with “days old brinjal plants were” for “days old tomato plants were”, “larval movement. Nymph of thrips was released” for “larval movement. Single starved 3rd instar larva was released”, “and mylar was covered” for “and mylar sheet was covered”

Spodoptera litura [3] = test: Field experiment, binary mixture, Spodoptera litura in tomato crop; type: in vivo
From the text: (§4) The tomato seedlings were transplanted and all the recommended package of practices for tomato farming was followed in the experiment, except for plant protection chemicals. […] Vigor descriptive scale was totally based on visual observations.

Spodoptera litura [4] = test: Field experiment, 3-way mixture, Spodoptera litura in tomato crop; details: 7 Day after application, flubendiamide 30 GAH, profenofos 480 GAH, Ascophyllum Nodosum 120 GAH, solo or mixtures (1:16, 1:16:4)
Method: as §1
(§5) The Field experiment was conducted at PI Industries Limited, Agricultural Research Station, Hyderabad to evaluate the efficacy of mixture of Flubendiamide, Profenofos and Ascophyllum Nodosum against Spodoptera litura in tomato crop. The tomato seedlings were transplanted and all the recommended packages of practices for tomato farming were followed in the experiment, except for plant protection chemicals. The ratio of Flubendiamide, Profenofos and Ascophyllum Nodosum mixture was 1:16:4 and 1:16:6 and the experiment was carried out in plots of 5×5 m in a randomized block design with three replications for each treatment. The applications were done with the help of a knapsack sprayer having a delivery of about 500 L/hectare. Care was taken to avoid drift of spray solution to adjacent experimental plots. Assessment of all the treatments was done for vigor, phytotoxicity and insect control. Observation on the insect larval count per plot from fifteen randomly selected plants was recorded at one day before and on 7 Day after application. […] Vigor descriptive scale was totally based on visual observations. For vigor comparison among treatments, untreated plots were considered as 100 percent and based on that rating was given to other treatments.

tomato crop [5] = test: Field experiment, binary mixture, yield of tomato fruits; type: in vivo; details: flubendiamide 30 GAH, Ascophyllum nodosum 120 GAH, solo or mixture 30 + 120 (1:4)
From the text: (§6) The expected activity for a given combination of two active compounds (binary composition) can be calculated as follows: […]
(§7) In which E represents the expected percentage of inhibition of the disease for the combination of two pesticides at defined doses (for example equal to x and y respectively), x is the percentage of inhibition observed for the disease by the compound (1) at a given dose (equal to x), y is the percentage of inhibition observed for the disease by the compound (2) at a defined dose (equal to y).
as §4

Spodoptera litura [6] = test: Whole plant greenhouse assay, binary mixture, Spodoptera litura; type: in vivo; details: tomato plants, 3rd instar larva, 72 hours; flubendiamide 30 GAH, Ascophyllum nodosum 120 GAH, solo or mixture 30 + 120 (1:4)
From the text: (§8) 25 to 30 days old tomato plants were used for the treatments.

tomato crop [7] = test: Field experiment, binary mixture, vigor rating of tomato crop; type: in vivo
From the text: as §6, §7, §4

tomato crop [8] = test: Field experiment, 3-way mixture, yield of tomato fruits; type: in vivo; details: flubendiamide 30 GAH, profenofos 480 GAH, Ascophyllum Nodosum 120 GAH, solo or mixtures (1:4, 4:1, 1:16:4)
Method: as §1, §5

Spodoptera litura [9] = test: Whole plant greenhouse assay, 3-way mixture, Spodoptera litura; details: tomato plants, 3rd instar larva, 72 hours; flubendiamide 30 GAH, profenofos 480 GAH, Ascophyllum Nodosum 120 GAH, solo or mixtures (1:16, 1:4, 4:1, 1:16:4)
Method: as §1, §2
as §3, with “and mylar was covered” for “and mylar sheet was covered”

Helicoverpa armigera [10] = test: Whole plant greenhouse assay, binary mixture, Helicoverpa armigera; type: in vivo; details: tomato plants, 3rd instar larva, 72 hours; flubendiamide 30 GAH, Ascophyllum nodosum 120 GAH, solo or mixture 30 + 120 (1:4)
From the text: as §8

Cc1cc(C(F)(C(F)(F)F)C(F)(F)F)ccc1NC(=O)c1cccc(I)c1C(=O)NC(C)(C)CS(C)(=O)=O [Flubendiamide, 3-iodo-N′-(2-mesyl-1,1-dimethylethyl)-N-{4-[1,2,2,2-tetrafluoro-1-(trifluoromethyl)ethyl]-o-tolyl}phthalamide]
Observed % mortality (Helicoverpa armigera [1]): 65% | plant vigor compared with control (visual observation) (tomato crop [2]): good plant vigor | Vigor rating (tomato crop [2]): 125 | Observed % mortality (Thrips): 8% | efficacy against Spodoptera litura in tomato (in words) (Spodoptera litura [3]; 30 GAH): effectively controlled the insect pests | Spodoptera litura (% control) 7 DAA (Spodoptera litura [3]; tomato, 7 DAA, flubendiamide 30 GAH, Ascophyllum nodosum 120 GAH, solo or mixture 30 + 120 (1:4)): 66.67% | Spodoptera litura (% control) 10 DAA (Spodoptera litura [3]; tomato, 10 DAA, flubendiamide 30 GAH, Ascophyllum nodosum 120 GAH, solo or mixture 30 + 120 (1:4)): 70.00% | Observed % mortality (Spodoptera litura [4]): 72.7% | Yield of tomato fruits, Ton/ha (observed) (tomato crop [5]): 60.16 Ton/ha | % mortality (Spodoptera litura [6]): 70% | plant vigor compared with control (visual observation) (tomato crop [7]; field, tomato crop): good plant vigor | Vigor (tomato crop [7]; visual rating, untreated plots = 100 percent, flubendiamide 30 GAH, Ascophyllum nodosum 120 GAH, solo or mixture 30 + 120 (1:4)): 110 | Observed yield (ton/hectare) of tomato fruits (tomato crop [8]): 64.20 ton/hectare | Observed % mortality (Spodoptera litura [9]): 72% | % mortality (Helicoverpa armigera [10]): 70%

CCCSP(=O)(OCC)Oc1ccc(Br)cc1Cl (stereo not shown) [Profenofos, profenofos]
Observed % mortality (Helicoverpa armigera [1]): 50% | plant vigor compared with control (visual observation) (tomato crop [2]): good plant vigor | Vigor rating (tomato crop [2]): 120 | Observed % mortality (Thrips): 72% | Observed % mortality (Spodoptera litura [4]): 55.6% | Observed yield (ton/hectare) of tomato fruits (tomato crop [8]): 56.95 ton/hectare | Observed % mortality (Spodoptera litura [9]): 52%

Source: patent US20240315243A1, “A COMBINATION OF FLU[…] SEAWEED EXTRACT” (priority 2021, published 2024)
